Experimental data published in patent US20250313535A1, “ALPHA 4 BETA 7 INTEGRIN MODULATORS AND USES THEREOF” (DICE MOLECULES SV, INC., priority 2022, published 2025).

How the values were obtained:
[1] = target: α4β7 integrin (Homo sapiens (Human), UniProt P13612+P26010); experiment: Integrin Adhesion Assay: Protocol 4 (MAdCAM-coated plate, RPMI-8866 cells with stable LOF mutation of the ITGB1 gene); format: cell-based; settings: Protocol 4; RPMI-8866 cells with LOF mutation of ITGB1, MAdCAM; read-out: Mean IC50 α4β7 KO
Sequence of α4β7 integrin (P13612 34-1032): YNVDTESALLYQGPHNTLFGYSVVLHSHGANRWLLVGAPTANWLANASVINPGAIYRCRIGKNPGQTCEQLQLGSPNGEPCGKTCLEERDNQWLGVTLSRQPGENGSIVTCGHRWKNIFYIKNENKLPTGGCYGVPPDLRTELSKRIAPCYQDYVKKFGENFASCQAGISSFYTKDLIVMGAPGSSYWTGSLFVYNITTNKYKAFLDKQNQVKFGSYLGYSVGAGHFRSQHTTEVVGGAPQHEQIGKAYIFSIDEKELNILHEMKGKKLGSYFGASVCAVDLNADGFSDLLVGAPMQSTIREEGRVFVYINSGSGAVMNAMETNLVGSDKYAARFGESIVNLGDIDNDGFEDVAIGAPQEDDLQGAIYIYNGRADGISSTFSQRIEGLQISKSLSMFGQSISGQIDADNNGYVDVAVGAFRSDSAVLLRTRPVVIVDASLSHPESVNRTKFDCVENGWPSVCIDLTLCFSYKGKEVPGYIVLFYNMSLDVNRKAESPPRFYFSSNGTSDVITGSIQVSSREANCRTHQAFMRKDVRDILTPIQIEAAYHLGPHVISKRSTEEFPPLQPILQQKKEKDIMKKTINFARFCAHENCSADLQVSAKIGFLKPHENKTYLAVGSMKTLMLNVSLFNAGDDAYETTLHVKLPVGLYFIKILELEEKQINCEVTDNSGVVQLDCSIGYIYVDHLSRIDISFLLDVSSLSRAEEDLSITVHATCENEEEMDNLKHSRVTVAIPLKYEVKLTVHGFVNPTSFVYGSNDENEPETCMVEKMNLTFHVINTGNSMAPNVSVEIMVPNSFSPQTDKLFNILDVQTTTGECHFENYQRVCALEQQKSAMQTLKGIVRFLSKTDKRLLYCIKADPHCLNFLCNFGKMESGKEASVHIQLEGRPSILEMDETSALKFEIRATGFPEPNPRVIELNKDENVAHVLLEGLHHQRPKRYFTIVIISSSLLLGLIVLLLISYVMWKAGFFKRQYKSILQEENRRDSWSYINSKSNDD
Sequence of α4β7 integrin (P26010 20-798): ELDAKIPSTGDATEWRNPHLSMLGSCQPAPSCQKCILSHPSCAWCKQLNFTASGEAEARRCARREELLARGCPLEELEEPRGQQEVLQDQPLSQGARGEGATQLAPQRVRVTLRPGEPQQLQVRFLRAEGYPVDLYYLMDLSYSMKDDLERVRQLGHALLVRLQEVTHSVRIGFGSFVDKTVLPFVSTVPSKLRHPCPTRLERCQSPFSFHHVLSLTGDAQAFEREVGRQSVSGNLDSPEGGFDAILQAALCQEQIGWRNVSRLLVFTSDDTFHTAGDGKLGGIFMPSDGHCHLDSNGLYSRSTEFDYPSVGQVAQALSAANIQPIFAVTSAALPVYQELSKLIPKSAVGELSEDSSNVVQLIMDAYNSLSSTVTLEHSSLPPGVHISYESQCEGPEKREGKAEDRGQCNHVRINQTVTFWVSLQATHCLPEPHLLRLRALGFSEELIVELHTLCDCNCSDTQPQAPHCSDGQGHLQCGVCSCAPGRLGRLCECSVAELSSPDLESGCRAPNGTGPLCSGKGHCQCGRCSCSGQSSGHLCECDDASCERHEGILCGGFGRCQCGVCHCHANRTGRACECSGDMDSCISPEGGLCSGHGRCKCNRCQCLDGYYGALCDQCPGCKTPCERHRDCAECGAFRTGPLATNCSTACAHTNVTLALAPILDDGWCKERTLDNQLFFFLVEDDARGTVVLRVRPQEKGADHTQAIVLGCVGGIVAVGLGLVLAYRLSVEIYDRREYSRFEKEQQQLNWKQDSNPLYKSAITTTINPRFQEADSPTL
Procedure, shortened: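 RPMI-8866 cells with CRISPR/Cas9 knockout of ITGB1 (2×10^6/mL) were added to MAdCAM-coated wells with compound (1% DMSO) in HEPES/NaCl buffer with 1 mM MnCl2, 0.1 mM CaCl2 and 1% BSA, then incubated 1 h at 37 °C. After four washes, adherent cells were quantified by CellTiter-Glo luminescence. Percent inhibition versus DMSO and control compound was fitted to 4-parameter curves.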

[2] = target: α4β1 integrin (Homo sapiens (Human), UniProt P05556+P13612); experiment: Integrin Adhesion Assay: Protocol 5 (VCAM-coated plate, RPMI-8866 cells with stable LOF mutation of the ITGB7 gene); format: cell-based; settings: Protocol 5; RPMI-8866 cells with LOF mutation of ITGB7, VCAM; read-out: Mean IC50 α4β1 KO
Sequence of α4β1 integrin (P13612 34-1032): as the sequence (P13612 34-1032) above
Sequence of α4β1 integrin (P05556 21-798): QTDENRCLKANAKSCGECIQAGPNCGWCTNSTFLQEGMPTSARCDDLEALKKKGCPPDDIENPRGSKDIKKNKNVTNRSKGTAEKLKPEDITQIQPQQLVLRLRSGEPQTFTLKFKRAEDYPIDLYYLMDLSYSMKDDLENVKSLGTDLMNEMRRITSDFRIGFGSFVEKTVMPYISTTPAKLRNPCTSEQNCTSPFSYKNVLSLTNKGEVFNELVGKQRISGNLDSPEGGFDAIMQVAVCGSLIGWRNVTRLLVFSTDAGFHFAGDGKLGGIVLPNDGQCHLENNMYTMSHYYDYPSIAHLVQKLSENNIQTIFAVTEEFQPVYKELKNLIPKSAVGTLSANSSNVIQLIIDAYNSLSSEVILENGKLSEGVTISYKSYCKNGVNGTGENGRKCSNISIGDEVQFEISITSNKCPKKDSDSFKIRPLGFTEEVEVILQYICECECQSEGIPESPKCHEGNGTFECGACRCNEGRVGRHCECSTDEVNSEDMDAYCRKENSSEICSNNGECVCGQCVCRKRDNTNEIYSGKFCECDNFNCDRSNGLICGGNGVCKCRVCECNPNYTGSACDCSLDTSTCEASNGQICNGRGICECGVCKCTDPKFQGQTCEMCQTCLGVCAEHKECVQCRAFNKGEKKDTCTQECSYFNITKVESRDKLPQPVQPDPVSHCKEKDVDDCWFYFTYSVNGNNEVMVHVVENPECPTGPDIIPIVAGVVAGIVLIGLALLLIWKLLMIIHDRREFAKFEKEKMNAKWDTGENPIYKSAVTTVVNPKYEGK
Procedure, shortened: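 RPMI-8866 B cells with CRISPR/Cas9 ITGB7 knockout (clonal, verified by flow cytometry) adhered to VCAM-coated wells for 1 h at 37° C in HEPES/NaCl buffer with 1 mM MnCl2, 0.1 mM CaCl2, 1% BSA, 1% DMSO. Bound cells quantified by CellTiter-Glo luminescence after washing; % inhibition versus DMSO and control, 4-parameter fit.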

Row | SMILES | IC50 [1] | IC50 [2]
1 | COc1ccc(CN2CC[C@@H](F)C2)cc1-c1cccc2c(C[C@H](NC(=O)C3(C(F)(F)F)CCN(CC(F)F)CC3)C(=O)O)cccc12 [Compound 944] | < 10 nM | 100 to 1000 nM
2 | Cc1cc(CN2CCC(C)(C)CC2)cnc1-c1cccc2c(C[C@H](NC(=O)C3(C(F)(F)F)CCN(C4COC4)CC3)C(=O)O)cccc12 [Compound 945] | < 10 nM | > 1000 nM
3 | COc1ccc(CN2CCC(F)(F)CC2)c(OC)c1-c1cccc2c(C[C@H](NC(=O)C3(C(F)(F)F)CCN(CC(F)F)CC3)C(=O)O)cccc12 [Compound 946] | 10 to 100 nM | 100 to 1000 nM
4 | O=C(O)[C@H](Cc1cccc2c(-c3ncc(CN4CCC(F)(F)CC4)cc3C3CC3)cccc12)NC(=O)C1(C(F)(F)F)CCN(CC(F)(F)F)CC1 [Compound 947] | < 10 nM | 100 to 1000 nM
5 | O=C(O)[C@H](Cc1cccc2c(-c3ncc(CN4CCN(C5CC5)CC4)cc3C3CC3)cccc12)NC(=O)C1(C(F)(F)F)CCN(CC(F)(F)F)CC1 [Compound 948] | < 10 nM | 100 to 1000 nM
6 | O=C(O)[C@H](Cc1cccc2c(-c3ncc(CN4CCC[C@@H](F)C4)cc3C3CC3)cccc12)NC(=O)C1(C(F)(F)F)CCN(CC(F)(F)F)CC1 [Compound 949] | < 10 nM | > 1000 nM
7 | O=C(O)[C@H](Cc1cccc2c(-c3ncc(CN4CCC[C@H](F)C4)cc3C3CC3)cccc12)NC(=O)C1(C(F)(F)F)CCN(CC(F)(F)F)CC1 [Compound 950] | < 10 nM | > 1000 nM
8 | O=C(O)[C@H](Cc1cccc2c(-c3ncc(CN4CCC(F)(F)CC4)cc3C3CC3)cccc12)NC(=O)C1(C(F)(F)F)CCN(CC(F)F)CC1 [Compound 951] | < 10 nM | 100 to 1000 nM
9 | O=C(O)[C@H](Cc1cccc2c(-c3ncc(CN4CCN(C5CC5)CC4)cc3C3CC3)cccc12)NC(=O)C1(C(F)(F)F)CCN(CC(F)F)CC1 [Compound 952] | < 10 nM | 100 to 1000 nM
10 | O=C(O)[C@H](Cc1cccc2c(-c3ncc(CN4CCC[C@H](F)C4)cc3C3CC3)cccc12)NC(=O)C1(C(F)(F)F)CCN(CC(F)F)CC1 [Compound 953] | < 10 nM | 100 to 1000 nM
11 | O=C(O)[C@H](Cc1cccc2c(-c3ncc(CN4CCC[C@@H](F)C4)cc3C3CC3)cccc12)NC(=O)C1(C(F)(F)F)CCN(CC(F)F)CC1 [Compound 954] | < 10 nM | 100 to 1000 nM
12 | O=C(O)[C@H](Cc1cccc2c(-c3ncc(CCN4CCCCC4)c4ccccc34)cccc12)NC(=O)C1(C(F)(F)F)CCN(CC(F)F)CC1 [Compound 955] | < 10 nM | 100 to 1000 nM
13 | COc1cccc(CCN2CCCCC2)c1-c1cccc2c(C[C@H](NC(=O)C3(C(F)(F)F)CCN(CC(F)(F)F)CC3)C(=O)O)cccc12 [Compound 956] | < 10 nM | 100 to 1000 nM
14 | COc1ccc(CCN2CCC3(CCCCC3)CC2)c(OC)c1-c1cccc2c(C[C@H](NC(=O)C3(C(F)(F)F)CCN(CC(F)(F)F)CC3)C(=O)O)cccc12 [Compound 957] | < 10 nM | 100 to 1000 nM
15 | COc1ccc(CCN2CCC(F)(F)CC2)c(OC)c1-c1cccc2c(C[C@H](NC(=O)C3(C(F)(F)F)CCN(CC(F)(F)F)CC3)C(=O)O)cccc12 [Compound 958] | < 10 nM | 100 to 1000 nM
16 | COc1cccc(CCN2CCCC(F)C2)c1-c1cccc2c(C[C@H](NC(=O)C3(C(F)(F)F)CCN(CC(F)(F)F)CC3)C(=O)O)cccc12 (stereo partly shown) [Compound 959] | < 10 nM | 100 to 1000 nM
17 | COc1cccc(CCN2CCC(C)(C)CC2)c1-c1cccc2c(C[C@H](NC(=O)C3(C(F)(F)F)CCN(CC(F)(F)F)CC3)C(=O)O)cccc12 [Compound 960] | < 10 nM | > 1000 nM
18 | COc1cccc(CCN2CCCC(C)(C)C2)c1-c1cccc2c(C[C@H](NC(=O)C3(C(F)(F)F)CCN(CC(F)(F)F)CC3)C(=O)O)cccc12 [Compound 961] | < 10 nM | 100 to 1000 nM
19 | O=C(O)[C@H](Cc1cccc2c(-c3ncc(CCN4CCCCC4)c4ccccc34)cccc12)NC(=O)C1(C(F)(F)F)CCN(CC(F)(F)F)CC1 [Compound 962] | < 10 nM | > 1000 nM
20 | COc1cc(CCN2CCCCC2)ccc1-c1cccc2c(C[C@H](NC(=O)C3(C(F)(F)F)CCN(CC(F)(F)F)CC3)C(=O)O)cccc12 [Compound 963] | < 10 nM | 100 to 1000 nM
21 | COc1cccc(CCN2CCC[C@H](F)C2)c1-c1cccc2c(C[C@H](NC(=O)C3(C(F)(F)F)CCN(CC(F)(F)F)CC3)C(=O)O)cccc12 [Compound 964] | 10 to 100 nM | > 1000 nM
22 | O=C(O)[C@H](Cc1cccc2c(-c3ncccc3CCN3CCCCC3)cccc12)NC(=O)C1(C(F)(F)F)CCN(CC(F)(F)F)CC1 [Compound 965] | 10 to 100 nM | > 1000 nM

Row | SMILES | IC50 [1] | IC50 [2]
23 | COc1ccc(CCN2CCC(F)CC2)c(OC)c1-c1cccc2c(C[C@H](NC(=O)C3(C(F)(F)F)CCN(CC(F)(F)F)CC3)C(=O)O)cccc12 [Compound 966] | < 10 nM | 100 to 1000 nM
24 | COc1ccc(CCN2CCC(C)(C)CC2)c(OC)c1-c1cccc2c(C[C@H](NC(=O)C3(C(F)(F)F)CCN(CC(F)(F)F)CC3)C(=O)O)cccc12 [Compound 967] | < 10 nM | 100 to 1000 nM
25 | COc1cccc(CCN2CCC(F)CC2)c1-c1cccc2c(C[C@H](NC(=O)C3(C(F)(F)F)CCN(CC(F)(F)F)CC3)C(=O)O)cccc12 [Compound 968] | < 10 nM | 100 to 1000 nM
26 | COc1cccc(CCN2CCC[C@H](F)C2)c1-c1cccc2c(C[C@H](NC(=O)C3(C(F)(F)F)CCN(CC(F)F)CC3)C(=O)O)cccc12 [Compound 969] | < 10 nM | > 1000 nM
27 | COc1cccc(CCN2CCC[C@@H](F)C2)c1-c1cccc2c(C[C@H](NC(=O)C3(C(F)(F)F)CCN(CC(F)F)CC3)C(=O)O)cccc12 [Compound 970] | < 10 nM | 100 to 1000 nM
28 | COc1cccc(CCN2CCC(C)C(F)(F)CC2)c1-c1cccc2c(C[C@H](NC(=O)C3(C(F)(F)F)CCN(CC(F)F)CC3)C(=O)O)cccc12 (stereo partly shown) [Compound 971] | < 10 nM | 100 to 1000 nM
29 | COc1cccc(CCN2CCC(C)C(F)(F)CC2)c1-c1cccc2c(C[C@H](NC(=O)C3(C(F)(F)F)CCN(CC(F)(F)F)CC3)C(=O)O)cccc12 (stereo partly shown) [Compound 972] | < 10 nM | 100 to 1000 nM
30 | COc1cccc(CCN2CCC(c3ccccc3)CC2)c1-c1cccc2c(C[C@H](NC(=O)C3(C(F)(F)F)CCN(CC(F)(F)F)CC3)C(=O)O)cccc12 [Compound 973] | 10 to 100 nM | > 1000 nM
31 | COc1cccc(CCN2CCC(F)(F)CC2)c1-c1cccc2c(C[C@H](NC(=O)C3(C(F)(F)F)CCN(CC(F)(F)F)CC3)C(=O)O)cccc12 [Compound 974] | 10 to 100 nM | > 1000 nM
32 | COc1cccc(CCN2CCC(c3ccccc3)CC2)c1-c1cccc2c(C[C@H](NC(=O)C3(C(F)(F)F)CCN(CC(F)F)CC3)C(=O)O)cccc12 [Compound 975] | < 10 nM | 100 to 1000 nM
33 | COc1cccc(CCN2CCC(F)(F)CC2)c1-c1cccc2c(C[C@H](NC(=O)C3(C(F)(F)F)CCN(CC(F)F)CC3)C(=O)O)cccc12 [Compound 976] | < 10 nM | 100 to 1000 nM
34 | O=C(O)[C@H](Cc1cccc2c(-c3ncc(CCN4CCC[C@@H](F)C4)c4ccccc34)cccc12)NC(=O)C1(C(F)(F)F)CCN(CC(F)(F)F)CC1 [Compound 977] | < 10 nM | > 1000 nM
35 | O=C(O)[C@H](Cc1cccc2c(-c3ncc(CCN4CCC[C@H](F)C4)c4ccccc34)cccc12)NC(=O)C1(C(F)(F)F)CCN(CC(F)(F)F)CC1 [Compound 978] | < 10 nM | > 1000 nM
36 | O=C(O)[C@H](Cc1cccc2c(-c3ncc(CCN4CCC(F)(F)CC4)c4ccccc34)cccc12)NC(=O)C1(C(F)(F)F)CCN(CC(F)(F)F)CC1 [Compound 980] | 10 to 100 nM | > 1000 nM
37 | CC(C)(C)C1CCN(CCc2cnc(-c3cccc4c(C[C@H](NC(=O)C5(C(F)(F)F)CCN(CC(F)(F)F)CC5)C(=O)O)cccc34)c3ccccc23)CC1 [Compound 981] | < 10 nM | > 1000 nM
38 | O=C(O)[C@H](Cc1cccc2c(-c3nccc4cccc(CCN5CCCCC5)c34)cccc12)NC(=O)C1(C(F)(F)F)CCN(CC(F)(F)F)CC1 [Compound 982] | < 10 nM | > 1000 nM
39 | COc1cc(CCN2CCCCC2)cnc1-c1cccc2c(C[C@H](NC(=O)C3(C(F)(F)F)CCN(CC(F)(F)F)CC3)C(=O)O)cccc12 [Compound 983] | < 10 nM | > 1000 nM
40 | COc1cccc(CCN2CCCC(C)(C)C2)c1-c1cccc2c(C[C@H](NC(=O)C3(C(F)(F)F)CCN(CC(F)F)CC3)C(=O)O)cccc12 [Compound 984] | < 10 nM | 100 to 1000 nM
41 | COc1cccc(CCN2CCC[C@@H](F)C2)c1-c1cccc2c(C[C@H](NC(=O)C3(C(F)(F)F)CCN(CC(F)(F)F)CC3)C(=O)O)cccc12 [Compound 985] | < 10 nM | 100 to 1000 nM
42 | CC1(C)CCN(Cc2ccc(-c3cccc4c(C[C@H](NC(=O)C5(C(F)(F)F)CCN(CC(F)(F)F)CC5)C(=O)O)cccc34)c3cnccc23)CC1 [Compound 986] | < 10 nM | 100 to 1000 nM
43 | O=C(O)[C@H](Cc1cccc2c(-c3ccc(CN4CCC(F)CC4)c4ccncc34)cccc12)NC(=O)C1(C(F)(F)F)CCN(CC(F)(F)F)CC1 [Compound 987] | < 10 nM | > 1000 nM
44 | O=C(O)[C@H](Cc1cccc2c(-c3nc(CN4CCCCC4)cc4ccccc34)cccc12)NC(=O)C1(C(F)(F)F)CCN(CC(F)(F)F)CC1 [Compound 988] | 10 to 100 nM | > 1000 nM
